Source: paper PMC7156458, “Synthetic biology based construction of biological activity-related library of fungal decalin-containing diterpenoid pyrones” (Nature Communications, 2020)

Biological target: Aβ42 (Homo sapiens, UniProt P05067)
Assay: Th-T (thioflavin-T) assay of Aβ42 aggregation
Type: biochemical
Conditions: for Th-T fluorescence of Aβ42 with compound, mean of three wells (Fig. 7a source data): concentration 50, unit not given

Chain of Aβ42 (P05067 672-713): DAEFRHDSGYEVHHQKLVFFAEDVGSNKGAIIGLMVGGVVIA

SMILES: C=C1CCC2C(C)(CCC=C(C)C)C(O)CCC2(C)C1Cc1c(OC)oc(C)c(C(=O)OC)c1=O (stereo not drawn) [Compound 14]
- Th-T fluorescence of Aβ42 with compound, mean of three wells (Fig. 7a source data) (time-course reading M143): 0.7264
- Th-T fluorescence of Aβ42 with compound, mean of three wells (Fig. 7a source data) (time-course reading M144): 0.7091
- Th-T fluorescence of Aβ42 with compound, mean of three wells (Fig. 7a source data) (time-course reading M145): 0.7134
- Th-T fluorescence of Aβ42 (sheet Fig. 7a), mean of three wells (head suffix _10 (concentration 10), reading M63): 2.709
- Th-T fluorescence of Aβ42 (sheet Fig. 7a), mean of three wells (head suffix _10 (concentration 10), reading M64): 2.685
- Th-T fluorescence of Aβ42 (sheet Fig. 7a), mean of three wells (head suffix _10 (concentration 10), reading M65): 2.69
- Th-T fluorescence of Aβ42 (sheet Fig. 7a), mean of three wells (head suffix _10 (concentration 10), reading M66): 2.693
- Th-T fluorescence of Aβ42 (sheet Fig. 7a), mean of three wells (head suffix _10 (concentration 10), reading M67): 2.707
- Th-T fluorescence of Aβ42 (sheet Fig. 7a), mean of three wells (head suffix _10 (concentration 10), reading M68): 2.71
- Th-T fluorescence of Aβ42 (sheet Fig. 7a), mean of three wells (head suffix _10 (concentration 10), reading M69): 2.6808
- Th-T fluorescence of Aβ42 (sheet Fig. 7a), mean of three wells (head suffix _10 (concentration 10), reading M70): 2.69
- Th-T fluorescence of Aβ42 (sheet Fig. 7a), mean of three wells (head suffix _10 (concentration 10), reading M71): 2.719
- Th-T fluorescence of Aβ42 (sheet Fig. 7a), mean of three wells (head suffix _10 (concentration 10), reading M72): 2.755
- Th-T fluorescence of Aβ42 (sheet Fig. 7a), mean of three wells (head suffix _10 (concentration 10), reading M73): 2.763
- Th-T fluorescence of Aβ42 (sheet Fig. 7a), mean of three wells (head suffix _10 (concentration 10), reading M74): 2.748
- Th-T fluorescence of Aβ42 (sheet Fig. 7a), mean of three wells (head suffix _10 (concentration 10), reading M75): 2.779
- Th-T fluorescence of Aβ42 (sheet Fig. 7a), mean of three wells (head suffix _10 (concentration 10), reading M76): 2.777
- Th-T fluorescence of Aβ42 (sheet Fig. 7a), mean of three wells (head suffix _10 (concentration 10), reading M77): 2.827
- Th-T fluorescence of Aβ42 (sheet Fig. 7a), mean of three wells (head suffix _10 (concentration 10), reading M78): 2.836
- Th-T fluorescence of Aβ42 (sheet Fig. 7a), mean of three wells (head suffix _10 (concentration 10), reading M79): 2.796
- Th-T fluorescence of Aβ42 (sheet Fig. 7a), mean of three wells (head suffix _10 (concentration 10), reading M80): 2.789
- Th-T fluorescence of Aβ42 (sheet Fig. 7a), mean of three wells (head suffix _10 (concentration 10), reading M81): 2.809
- Th-T fluorescence of Aβ42 (sheet Fig. 7a), mean of three wells (head suffix _10 (concentration 10), reading M82): 2.8409
- Th-T fluorescence of Aβ42 (sheet Fig. 7a), mean of three wells (head suffix _10 (concentration 10), reading M83): 2.8356
- Th-T fluorescence of Aβ42 (sheet Fig. 7a), mean of three wells (head suffix _10 (concentration 10), reading M84): 2.801
- Th-T fluorescence of Aβ42 (sheet Fig. 7a), mean of three wells (head suffix _20 (concentration 20), reading M63): 2.081
- Th-T fluorescence of Aβ42 (sheet Fig. 7a), mean of three wells (head suffix _20 (concentration 20), reading M64): 2.033
- Th-T fluorescence of Aβ42 (sheet Fig. 7a), mean of three wells (head suffix _20 (concentration 20), reading M65): 2.056
- Th-T fluorescence of Aβ42 (sheet Fig. 7a), mean of three wells (head suffix _20 (concentration 20), reading M66): 1.992
- Th-T fluorescence of Aβ42 (sheet Fig. 7a), mean of three wells (head suffix _20 (concentration 20), reading M67): 2.022
- Th-T fluorescence of Aβ42 (sheet Fig. 7a), mean of three wells (head suffix _20 (concentration 20), reading M68): 2.054
- Th-T fluorescence of Aβ42 (sheet Fig. 7a), mean of three wells (head suffix _20 (concentration 20), reading M69): 2.0412
- Th-T fluorescence of Aβ42 (sheet Fig. 7a), mean of three wells (head suffix _20 (concentration 20), reading M70): 2.012
- Th-T fluorescence of Aβ42 (sheet Fig. 7a), mean of three wells (head suffix _20 (concentration 20), reading M71): 1.97
- Th-T fluorescence of Aβ42 (sheet Fig. 7a), mean of three wells (head suffix _20 (concentration 20), reading M72): 1.988
- Th-T fluorescence of Aβ42 (sheet Fig. 7a), mean of three wells (head suffix _20 (concentration 20), reading M73): 1.972
- Th-T fluorescence of Aβ42 (sheet Fig. 7a), mean of three wells (head suffix _20 (concentration 20), reading M74): 1.9541
- Th-T fluorescence of Aβ42 (sheet Fig. 7a), mean of three wells (head suffix _20 (concentration 20), reading M75): 1.951
- Th-T fluorescence of Aβ42 (sheet Fig. 7a), mean of three wells (head suffix _20 (concentration 20), reading M76): 1.9741
- Th-T fluorescence of Aβ42 (sheet Fig. 7a), mean of three wells (head suffix _20 (concentration 20), reading M77): 1.953
- Th-T fluorescence of Aβ42 (sheet Fig. 7a), mean of three wells (head suffix _20 (concentration 20), reading M78): 1.933
- Th-T fluorescence of Aβ42 (sheet Fig. 7a), mean of three wells (head suffix _20 (concentration 20), reading M79): 1.92
- Th-T fluorescence of Aβ42 (sheet Fig. 7a), mean of three wells (head suffix _20 (concentration 20), reading M80): 1.931
- Th-T fluorescence of Aβ42 (sheet Fig. 7a), mean of three wells (head suffix _20 (concentration 20), reading M81): 1.911
- Th-T fluorescence of Aβ42 (sheet Fig. 7a), mean of three wells (head suffix _20 (concentration 20), reading M82): 1.915
- Th-T fluorescence of Aβ42 (sheet Fig. 7a), mean of three wells (head suffix _20 (concentration 20), reading M83): 1.888
- Th-T fluorescence of Aβ42 (sheet Fig. 7a), mean of three wells (head suffix _20 (concentration 20), reading M84): 1.889
- Th-T fluorescence of Aβ42 (sheet Fig. 7a), mean of three wells (head suffix _50 (concentration 50), reading M63): 3.83
- Th-T fluorescence of Aβ42 (sheet Fig. 7a), mean of three wells (head suffix _50 (concentration 50), reading M64): 3.705
- Th-T fluorescence of Aβ42 (sheet Fig. 7a), mean of three wells (head suffix _50 (concentration 50), reading M65): 3.586
- Th-T fluorescence of Aβ42 (sheet Fig. 7a), mean of three wells (head suffix _50 (concentration 50), reading M66): 3.506
- Th-T fluorescence of Aβ42 (sheet Fig. 7a), mean of three wells (head suffix _50 (concentration 50), reading M67): 3.421
- Th-T fluorescence of Aβ42 (sheet Fig. 7a), mean of three wells (head suffix _50 (concentration 50), reading M68): 3.307
- Th-T fluorescence of Aβ42 (sheet Fig. 7a), mean of three wells (head suffix _50 (concentration 50), reading M69): 3.193
- Th-T fluorescence of Aβ42 (sheet Fig. 7a), mean of three wells (head suffix _50 (concentration 50), reading M70): 3.0995
- Th-T fluorescence of Aβ42 (sheet Fig. 7a), mean of three wells (head suffix _50 (concentration 50), reading M71): 3.0146
- Th-T fluorescence of Aβ42 (sheet Fig. 7a), mean of three wells (head suffix _50 (concentration 50), reading M72): 2.931
